How the values were obtained:
P388 cell lines = details: cell line in culture; background statement; cited from earlier work
A549 cell lines = details: cell line in culture; background statement; cited from earlier work
fertilised sea urchin = fertilised sea urchin assay; background statement; cited from earlier work
lung cancer cell lines = details: acting as a Type IV microtubule poison; background statement; cited from earlier work

Compound | cytotoxicity against P388 (P388 cell lines) | cytotoxicity against A549 (A549 cell lines) | also measured
Lamellarin K | comparable and significant cytotoxicity | comparable and significant cytotoxicity | 
COc1cc(-c2c3n(c4c(=O)oc5cc(O)c(OC)cc5c24)CCc2c-3cc(OC)c(OC)c2OC)ccc1O [Lamellarin C] |  |  | inhibition of cell division (fertilised sea urchin): inhibition of cell division
Lamellarin I | comparable and significant cytotoxicity | comparable and significant cytotoxicity | 
COc1cc(-c2c3n(c4c(=O)oc5cc(O)c(OC)cc5c24)CCc2cc(OC)c(OC)cc2-3)ccc1O [Compound 35, 10-Deoxylamellarin K] |  |  | melting point: 292 to 294 °C
COc1ccc(-c2c3c4cc(OC)c(O)cc4oc(=O)c3n3ccc4cc(O)c(OC)cc4c23)cc1O [Lamellarin N] |  |  | activity in lung cancer cell lines (lung cancer cell lines): exhibit activity
COc1cc(-c2c3c4cc(OC)c(O)cc4oc(=O)c3n3ccc4cc(O)c(OC)cc4c23)ccc1O [Lamellarin D] |  |  | inhibition of cell division (fertilised sea urchin): inhibition of cell division
COc1ccc(-c2c3n(c4c(=O)oc5cc(O)c(OC)cc5c24)CCc2cc(O)c(OC)cc2-3)cc1O [Lamellarin L] | comparable and significant cytotoxicity | comparable and significant cytotoxicity | 

From US7122673B2, “Preparation of fused polycyclic alkaloids by ring closure of azomethine ylides, novel compounds thereof and their use as chemotherapeutic agents” (The Australian National University, priority 1997, dated 2006)
